Results from patent US12606561B2, “Substituted pyrazolo[1,5-a][1,3,5]triazines as CDK inhibitors” (QURIENT CO., LTD., priority 2018, dated 2026).
pIC50: −log10 of the molar value.

Tests used:
CDK1/Cyclin B = target: T1, CDK1/Cyclin B (Homo sapiens, UniProt P06493); assay: Enzymatic assay for CDK1 (LANCE Ultra kinase assay, FRET based); format: biochemical; settings: ATP at Km; read-out: CDK1 enzymatic activity IC50
T1 construct: purchased Invitrogen PR4768C
Protocol: (§1) Enzymatic Binding Assay Protocol for CDK1, CDK2, CDK5 and CDK7
(§2) Inhibition activity of the respective compound on CDK kinase under Km value of ATP was tested in FRET based The LANCE® Ultra kinase assay (Perkin Elmer), which uses a ULight™-labeled peptide substrate and an appropriate Europium-labeled anti-phospho-antibody. […] After 1 min centrifugation at 1000 rpm, purified CDKs/Cyclin complex were added with the following concentrations respectively. […] Data were analyzed using XL Fit software.

CDK2/Cyclin A = target: T2, CDK2/Cyclin A (Homo sapiens, UniProt P24941); assay: Enzymatic assay for CDK2 (LANCE Ultra kinase assay, FRET based); format: biochemical; settings: ATP at Km
T2 construct: purchased Invitrogen PV6290
Protocol: as §1
(§3) Inhibition activity of the respective compound on CDK kinase under Km value of ATP was tested in FRET based The LANCE® Ultra kinase assay (Perkin Elmer), which uses a ULight™-labeled peptide substrate and an appropriate Europium-labeled anti-phospho-antibody. Test compounds were made with DMSO solutions, and then 4-fold serial dilutions for 8 doses were prepared using automated liquid handler (POD™ 810, Labcyte) and 80 nL/well of diluted compound solutions were added into the 384-well plates (Greiner, Cat #784075). And then 68 nM of ULight-MBP peptide (Perkin Elmer, Cat #TRF0109-M) and 5 ul/well of ATP (Sigma, Cat #A7699) were added to the plate. After 1 min centrifugation at 1000 rpm, purified CDKs/Cyclin complex were added with the following concentrations respectively. 24 uM for CDK1/Cyclin B (Invitrogen, Cat #PR4768C), 22 uM for CDK2/Cyclin A (Invitrogen, Cat #PV6290), 10 uM for CDK5/p25 (Invitrogen, Cat #PR8543B) and […] for CDK7/Cyclin H/MNAT1 (Invitrogen, Cat #PR6749B) were added to each corresponding plate for CDK1, CDK2, CDK5 and CDK7. Incubate at 23° C. for 60 min and then Eu-labeled anti-phospho-Myelin Basic Protein (PE, Cat #TRF0201-M) and EDTA (Invitrogen, Cat #15575038) mixture in Lance Detection Buffer (Perkin Elmer, Cat #CR97100) was added in each well. After additional incubation at 23° C. for 60 min, test articles were measured the fluorescence using Envision leader (Perkin Elmer, USA) [Laser as excitation light; […] as the first and the second emission filter]. Data were analyzed using XL Fit software.

CDK5/p25 = target: T3, CDK5/p25 (Homo sapiens, UniProt Q00535); assay: Enzymatic assay for CDK5 (LANCE Ultra kinase assay, FRET based); format: biochemical; settings: ATP at Km
T3 construct: purchased Invitrogen PR8543B
Protocol: as §1, §3

CDK7/Cyclin H/MNAT1 = target: T4, CDK7/Cyclin H/MNAT1 (Homo sapiens, UniProt P50613); assay: Enzymatic assay for CDK7 (LANCE Ultra kinase assay, FRET based); format: biochemical; settings: for pIC50: ATP at Km
T4 construct: purchased Invitrogen PR6749B
Protocol: as §1, §2

A2780 = A2780 viability assay (CellTiter-Glo, 72 hours); format: cell-based; settings: Homo sapiens; A2780 cells
Protocol: Human […] cell line, MV4-11_(ATCC, Cat #CRL-9591), NSCLC (Non-small cell lung cancer) cell line H460 (ATCC, Cat #HTB-177), A2780 (ECACC, Cat #93112519) and OVCAR-3(ATCC, Cat #HTB-161) were obtained from ATCC. Cells were grown in RPMI-1640 media (Invitrogen, Cat #22400-089) supplemented with 10% FBS (Invitrogen, Cat #10099141) and 1% penicillin/streptomycin (Invitrogen, Cat #15070063) and cultured at 37° C., 5% CO2 in a humidified chamber. All cell lines were routinely tested for mycoplasma.
To effect of the CDK7 inhibitor to inhibit the growth of target cancer cells, viability assay were conducted a 72 hour time period. Briefly, the candidate cell line was plated in 96 well plate at the following density of cells respectively. 1×10^4 cells/well for MV4-11, 5×10^3 for H460 and OVCAR-3, and 1×10^3 for A2780. After 24 hours, the cells were treated with various concentrations of the compound (ranging from 0.0015 uM to 10 uM). DMSO solvent without compound served as a control and final DMSO concentration lest than 0.1%. After 72 hours of incubation at 37° C., 5% CO2 incubator, cells were analyzed for the viability using the CellTiter-Glo Luminescent Cell Viability Assay (Promega, Cat #G7570). All viability assays were performed in duplicate and Luminescence was read using an Envision (Perkin Elmer, USA). Data was analyzed using XLfit software.

T1 sequence (P06493 whole entry): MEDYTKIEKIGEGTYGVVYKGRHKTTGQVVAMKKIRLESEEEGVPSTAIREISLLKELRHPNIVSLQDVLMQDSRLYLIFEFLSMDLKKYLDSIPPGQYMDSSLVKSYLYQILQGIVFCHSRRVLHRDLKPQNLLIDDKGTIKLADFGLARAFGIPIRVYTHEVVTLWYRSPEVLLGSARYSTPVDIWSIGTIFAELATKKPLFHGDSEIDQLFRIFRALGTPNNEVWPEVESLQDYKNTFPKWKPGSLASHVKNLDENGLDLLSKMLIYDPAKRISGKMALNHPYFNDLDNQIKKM
T1 sequence (P14635 whole entry partner): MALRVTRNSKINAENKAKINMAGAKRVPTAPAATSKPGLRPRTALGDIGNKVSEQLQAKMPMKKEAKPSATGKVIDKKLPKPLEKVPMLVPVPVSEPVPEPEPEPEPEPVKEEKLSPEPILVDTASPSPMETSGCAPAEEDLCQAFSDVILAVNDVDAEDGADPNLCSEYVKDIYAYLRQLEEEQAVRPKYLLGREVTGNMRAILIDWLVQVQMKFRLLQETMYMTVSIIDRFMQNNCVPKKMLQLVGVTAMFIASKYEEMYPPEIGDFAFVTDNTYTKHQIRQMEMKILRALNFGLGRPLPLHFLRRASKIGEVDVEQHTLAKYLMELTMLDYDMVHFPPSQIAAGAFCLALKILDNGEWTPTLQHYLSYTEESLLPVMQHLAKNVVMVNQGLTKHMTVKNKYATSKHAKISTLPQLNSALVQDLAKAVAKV
T4 sequence (P50613 whole entry): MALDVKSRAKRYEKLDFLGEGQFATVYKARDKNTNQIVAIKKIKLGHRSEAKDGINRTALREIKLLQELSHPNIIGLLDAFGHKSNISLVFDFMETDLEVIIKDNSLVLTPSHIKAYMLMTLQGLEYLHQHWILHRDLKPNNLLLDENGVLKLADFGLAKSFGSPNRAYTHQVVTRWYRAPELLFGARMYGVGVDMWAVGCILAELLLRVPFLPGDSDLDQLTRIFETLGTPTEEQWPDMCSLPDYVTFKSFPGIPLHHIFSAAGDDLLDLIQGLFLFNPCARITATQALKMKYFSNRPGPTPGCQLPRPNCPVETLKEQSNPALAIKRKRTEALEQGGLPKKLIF
T4 sequence (P51946 whole entry partner): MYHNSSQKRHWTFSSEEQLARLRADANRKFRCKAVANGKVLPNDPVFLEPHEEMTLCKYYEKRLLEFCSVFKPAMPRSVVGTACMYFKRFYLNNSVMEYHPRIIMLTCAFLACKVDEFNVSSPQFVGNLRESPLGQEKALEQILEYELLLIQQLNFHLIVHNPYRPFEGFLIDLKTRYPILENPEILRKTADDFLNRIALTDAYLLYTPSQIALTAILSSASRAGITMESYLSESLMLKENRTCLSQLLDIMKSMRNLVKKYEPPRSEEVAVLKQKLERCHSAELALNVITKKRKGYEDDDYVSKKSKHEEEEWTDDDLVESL
T4 sequence (P51948 whole entry partner): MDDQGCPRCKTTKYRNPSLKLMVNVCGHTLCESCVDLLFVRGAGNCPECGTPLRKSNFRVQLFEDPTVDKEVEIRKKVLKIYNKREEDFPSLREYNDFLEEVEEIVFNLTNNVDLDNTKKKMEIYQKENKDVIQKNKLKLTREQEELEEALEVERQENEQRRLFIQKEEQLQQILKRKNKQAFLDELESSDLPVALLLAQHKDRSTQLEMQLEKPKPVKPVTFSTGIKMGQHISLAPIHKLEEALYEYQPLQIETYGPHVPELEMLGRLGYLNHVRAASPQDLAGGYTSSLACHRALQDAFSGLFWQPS
T3 sequence (Q00535 whole entry): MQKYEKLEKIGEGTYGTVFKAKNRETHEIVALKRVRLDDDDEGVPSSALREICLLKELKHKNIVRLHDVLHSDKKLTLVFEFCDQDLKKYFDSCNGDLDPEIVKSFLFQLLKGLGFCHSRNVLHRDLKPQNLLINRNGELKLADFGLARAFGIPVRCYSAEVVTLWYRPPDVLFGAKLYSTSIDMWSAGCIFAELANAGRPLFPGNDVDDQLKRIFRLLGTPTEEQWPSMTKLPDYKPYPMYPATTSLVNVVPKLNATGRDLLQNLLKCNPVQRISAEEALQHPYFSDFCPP
T3 sequence (Q15078 99-307 partner limits assumed): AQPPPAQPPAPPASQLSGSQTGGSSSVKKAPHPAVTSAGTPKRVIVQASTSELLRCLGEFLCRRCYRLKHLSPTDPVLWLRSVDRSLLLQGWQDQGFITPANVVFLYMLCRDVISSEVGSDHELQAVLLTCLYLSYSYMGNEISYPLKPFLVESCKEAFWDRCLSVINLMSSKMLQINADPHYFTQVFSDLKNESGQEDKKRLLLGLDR

Row | pIC50 (CDK1/Cyclin B) | pIC50 (CDK2/Cyclin A) | pIC50 (CDK5/p25) | pIC50 (CDK7/Cyclin H/MNAT1) | CDK1/CDK7: Selectivity of CDK7 inhibition over CDK1 inhibition (CDK7/Cyclin H/MNAT1) | CDK2/CDK7: Selectivity of CDK7 inhibition over CDK2 inhibition (CDK7/Cyclin H/MNAT1) | CDK5/CDK7: Selectivity of CDK7 inhibition over CDK5 inhibition (CDK7/Cyclin H/MNAT1) | pIC50 (A2780) | Compound
1 | < 6.00 | < 6.00 | < 6.00 | > 7.00 | A (A indicates [fold] > 500) | A (A indicates [fold] > 500) | A (A indicates [fold] > 500) | > 6.00 | C=CC(=O)Nc1ccc2c(-c3ccccc3CNc3nc(Nc4cccnc4)nc4c(C(C)C)cnn34)nccc2c1 [Compound 188]
2 | < 6.00 | < 6.00 | < 6.00 | 6.00 to 7.00 | B (B indicates 50 < [fold] ≤ 500) | B (B indicates 50 < [fold] ≤ 500) | B (B indicates 50 < [fold] ≤ 500) | 5.00 to 6.00 | C=CC(=O)Nc1ccc2c(-c3ccccc3CNc3nc(Nc4ccncc4)nc4c(C(C)C)cnn34)nccc2c1 [Compound 189]
3 | < 6.00 | < 6.00 | < 6.00 | > 7.00 | A (A indicates [fold] > 500) | A (A indicates [fold] > 500) | A (A indicates [fold] > 500) | > 6.00 | C=C(C)C(=O)Nc1ccc2c(-c3ccccc3CNc3nc(OC4CCC(C)(C)NC4)nc4c(C(C)C)cnn34)nccc2c1 (stereo not drawn) [Compound 190]
4 | < 6.00 | < 6.00 | < 6.00 | > 7.00 | A (A indicates [fold] > 500) | A (A indicates [fold] > 500) | A (A indicates [fold] > 500) | > 6.00 | C=C(F)C(=O)N1CCc2c(cccc2-c2ccccc2CNc2nc(OC3CCC(C)(C)NC3)nc3c(C(C)C)cnn23)C1 (stereo not drawn) [Compound 191]
5 | < 6.00 | < 6.00 | < 6.00 | > 7.00 | A (A indicates [fold] > 500) | A (A indicates [fold] > 500) | A (A indicates [fold] > 500) | > 6.00 | C=C(F)C(=O)N1CCc2c(cccc2-c2ccccc2CNc2nc(N[C@@H]3CCCNC3)nc3c(C(C)C)cnn23)C1 [Compound 192]
6 | < 6.00 | < 6.00 | < 6.00 | > 7.00 | A (A indicates [fold] > 500) | A (A indicates [fold] > 500) | A (A indicates [fold] > 500) | > 6.00 | C=CC(=O)Nc1ccc2c(-c3ccccc3CNc3cc(Cl)nc4c(C(C)C)cnn34)nccc2c1 [Compound 193]
7 | < 6.00 | < 6.00 | < 6.00 | > 7.00 | A (A indicates [fold] > 500) | A (A indicates [fold] > 500) | A (A indicates [fold] > 500) | > 6.00 | C=CC(=O)Nc1ccc2c(-c3ccccc3CNc3nc(Nc4cccc(OC5CCC(C)(C)NC5)c4)nc4c(C(C)C)cnn34)nccc2c1 (stereo not drawn) [Compound 194]
8 | < 6.00 | < 6.00 | < 6.00 | > 7.00 | A (A indicates [fold] > 500) | A (A indicates [fold] > 500) | A (A indicates [fold] > 500) | > 6.00 | C=CC(=O)Nc1ccc2c(-c3ccccc3CNc3cc(C)nc4c(C(C)C)cnn34)nccc2c1 [Compound 195]
9 | < 6.00 | < 6.00 | < 6.00 | < 6.00 | C (C indicates [fold] ≤ 50) | C (C indicates [fold] ≤ 50) | C (C indicates [fold] ≤ 50) | 5.00 to 6.00 | C=CC(=O)Nc1ccc2c(-c3ccccc3CNc3nc(NCc4cnc(C)s4)nc4c(C(C)C)cnn34)nccc2c1 [Compound 196]
10 | < 6.00 | < 6.00 | < 6.00 | > 7.00 | A (A indicates [fold] > 500) | A (A indicates [fold] > 500) | A (A indicates [fold] > 500) | > 6.00 | C=CC(=O)Nc1ccc2c(-c3ccccc3CNc3cc(C4CC4)nc4c(C(C)C)cnn34)nccc2c1 [Compound 197]
11 | < 6.00 | < 6.00 | < 6.00 | > 7.00 | B (B indicates 50 < [fold] ≤ 500) | B (B indicates 50 < [fold] ≤ 500) | B (B indicates 50 < [fold] ≤ 500) | > 6.00 | C=CC(=O)Nc1ccc2c(-c3ccccc3CNc3cc(C(F)(F)F)nc4c(C(C)C)cnn34)nccc2c1 [Compound 198]
12 | < 6.00 | < 6.00 | < 6.00 | > 7.00 | A (A indicates [fold] > 500) | A (A indicates [fold] > 500) | A (A indicates [fold] > 500) | > 6.00 | C=C(F)C(=O)N1CCc2c(ccnc2-c2ccccc2CNc2nc(OC3CCC(C)(C)NC3)nc3c(C(C)C)cnn23)C1 (stereo not drawn) [Compound 199]
13 | < 6.00 | < 6.00 | < 6.00 | > 7.00 | B (B indicates 50 < [fold] ≤ 500) | B (B indicates 50 < [fold] ≤ 500) | B (B indicates 50 < [fold] ≤ 500) | > 6.00 | C=CC(=O)Nc1ccc2c(-c3ccccc3CNc3nc(-c4cccnc4)nc4c(C(C)C)cnn34)nccc2c1 [Compound 200]
14 | < 6.00 | < 6.00 | < 6.00 | > 7.00 | B (B indicates 50 < [fold] ≤ 500) | B (B indicates 50 < [fold] ≤ 500) | B (B indicates 50 < [fold] ≤ 500) | > 6.00 | C=CC(=O)Nc1ccc2c(-c3ccccc3CNc3nc(-c4ccncc4)nc4c(C(C)C)cnn34)nccc2c1 [Compound 201]
15 | < 6.00 | < 6.00 | < 6.00 | > 7.00 | B (B indicates 50 < [fold] ≤ 500) | B (B indicates 50 < [fold] ≤ 500) | B (B indicates 50 < [fold] ≤ 500) | > 6.00 | CC(C)c1cnn2c(NCc3ccccc3-c3nccc4cc(NC(=O)/C=C/CN(C)C)ccc34)nc(S(C)(=O)=O)nc12 [Compound 202]
